Assay results published in article PMC7367283, “A PIP2 substitute mediates voltage sensor-pore coupling in KCNQ activation” (Communications Biology, 2020).

Biological target: IKs channels (Homo sapiens, UniProt P51787)
Assay: Inside-out patch clamp of IKs channels expressed in Xenopus oocytes (rundown and rescue)
Type: cell-based
Conditions: 10 µM CP1 on intracellular side; pulses to +80 mV
From the text: We tested whether CP1 can mimic PIP2 in mediating VSD-pore coupling. We co-expressed KCNQ1 with the voltage-dependent lipid phosphatase CiVSP[44] in Xenopus oocytes and recorded KCNQ1 currents using two-electrode voltage clamp with consecutive depolarizing voltage pulses. The current increased upon KCNQ1 activation at the beginning of the first voltage pulse (First trace, Fig. 2a) and then declined due to CiVSP activation to deplete PIP2[18]. A subsequent voltage pulse elicited much smaller KCNQ1 currents (Rundown trace, Fig. 2a) as a result of PIP2 depletion that had insufficient time to be replenished by endogenous enzymes between the pulses. […] Similarly, the IKs channel (KCNQ1 + KCNE1) currents decrease upon co-expression with CiVSP with consecutive voltage pulses (Fig. 2c, d), which is similar to our previous observations. […] To more directly test CP1 effects, we applied CP1 to the intracellular side of the inside-out membrane patch that expressed IKs channels. […]
Macroscopic currents expressed in Xenopus oocytes were recorded from inside-out patches formed with borosilicate pipettes of 0.5–1.0-MΩ resistance. […]

O=S(=O)([O-])Oc1c(-c2sc3c(ccc4cccc(Cl)c43)c2OS(=O)(=O)[O-])[nH]c2ccc(Br)cc12.[Na+].[Na+] [CP1, DISODIUM 5-BROMO-2-[9-CHLORO-3-(SULFONATOOXY) NAPHTHO [1,2-B] THIEN-2-YL]-1H-INDOL-3-YL SULFATE]
IKs current after rundown in inside-out patch: the current increased with consecutive voltage pulses
